Experimental data from patent US7148249B2, “Indolinones substituted by heterocycles, the preparation thereof and their use as medicaments” (Boehringer Ingelheim Pharma GmbH & Co. KG, priority 2002, dated 2006).
Where a name gives a salt, the structure may show the parent alone.

Tested on: Human umbilical endothelial cells (HUVEC)
Assay: Inhibition of VEGF165-stimulated HUVEC proliferation (3H-thymidine incorporation)
Type: cell-based
Conditions: Homo sapiens; HUVEC proliferation stimulated with 5 ng/ml VEGF165 and 10 μg/ml heparin; 76 h incubation + 16 h 3H-thymidine
Experimental: Human umbilical endothelial cells (HUVEC) were cultivated in IMDM (Gibco BRL), supplemented with 10% foetal calf serum (FBS) (Sigma), 50 μM of β-mercaptoethanol (Fluka), standard antibiotics, 15 μg/ml of endothelial cell growth factor (ECGS, Collaborative Biomedical Products) and 100 μg/ml of heparin (Sigma) on gelatine-coated culture dishes (0.2% gelatine, Sigma) at 37° C., under 5% CO2 in a water-saturated atmosphere.
In order to investigate the inhibitory activity of the compounds according to the invention the cells were “starved” for 16 hours, i.e. kept in culture medium without growth factors (ECGS+heparin). The cells were detached from the culture dishes using trypsin/EDTA and washed once in serum-containing medium. Then they were seeded out in amounts of 2.5×10^3 cells per well.
The proliferation of the cells was stimulated with 5 ng/ml of VEGF165 (vascular endothelial growth factor; H. Weich, GBF Braunschweig) and 10 μg/ml of heparin. As a control, 6 wells in each dish were not stimulated.
The compounds according to the invention were dissolved in 100% dimethylsulphoxide and added to the cultures in various dilutions as triple measurements, the maximum dimethylsulphoxide concentration being 0.3%.
The cells were incubated for 76 hours at 37° C., then for a further 16 hours ^3H-thymidine (0.1 μCi/well, Amersham) was added in order to determine the DNA synthesis. Then the radioactively labelled cells were immobilised on filter mats and the radioactivity incorporated was measured in a β-counter. In order to determine the inhibitory activity of the compounds according to the invention the mean value of the non-stimulated cells was subtracted from the mean value of the factor-stimulated cells (in the presence or absence of the compounds according to the invention).
The relative cell proliferation was calculated as a percentage of the control (HUVEC without inhibitor) and the concentration of active substance which inhibits the proliferation of the cells by 50% (IC50) was determined.

SMILES	IC50 [nM]
CCN(C)Cc1ccc(N/C(=C2\C(=O)Nc3cc(Cl)ccc32)c2ccc3c(c2)OCO3)cc1 [(c), 3-(Z)-{1-[4-(N-ethyl-N-methyl-aminomethyl)-phenylamino]-1-(3,4-methylenedioxy-phenyl)-methylene}-6-chloro-2-indolinone]	2
CN(C)CCC(=O)N(C)c1ccc(N/C(=C2\C(=O)Nc3cc(F)ccc32)c2ccc3c(c2)OCCO3)cc1 [(d), 3-(Z)-{1-[4-(N-methyl-N-{2-(dimethylamino)-ethyl-carbonyl}-amino)-phenylamino]-1-(3,4-ethylenedioxyphenyl)-methylene}-6-fluoro-2-indolinone]	3
Cn1cnc2cc(/C(Nc3ccc(Cn4cncn4)cc3)=C3/C(=O)Nc4cc(F)ccc43)ccc21 [(e), 3-(Z)-{1-[4-(1,2,4-triazol-1-yl-methyl)-phenylamino]-1-(1-methyl-benzimidazol-5-yl)-methylene}-6-fluoro-2-indolinone]	16
CN(C)Cc1ccc(N/C(=C2\C(=O)Nc3cc(Cl)ccc32)c2ccc3c(c2)OCCO3)cc1 [(g), 3-(Z)-{1-[4-(dimethylaminomethyl)-phenylamino]-1-(3,4-ethylenedioxyphenyl)-methylene}-6-chloro-2-indolinone]	9
CN(C)CCN(c1ccc(N/C(=C2\C(=O)Nc3cc(Cl)ccc32)c2ccc3c(c2)OCCO3)cc1)S(C)(=O)=O [(h), 3-(Z)-{1-(4-[N-methanesulphonyl-N-(2-dimethylaminoethyl)-amino]-phenylamino)-1-(3,4-ethylenedioxyphenyl)-methylene}-6-chloro-2-indolinone]	3
COC(=O)c1ccc2c(c1)NC(=O)/C2=C(\Nc1ccc(CN(C)C)cc1)c1ccc2c(c1)OCCO2 [(i), 3-(Z)-{1-[4-(dimethylaminomethyl)-phenylamino]-1-(3,4-ethylenedioxyphenyl)-methylene}-6-methoxycarbonyl-2-indolinone]	0.5
COC(=O)c1ccc2c(c1)NC(=O)/C2=C(\Nc1ccc(N(C)C(=O)CN2CCN(C)CC2)cc1)c1ccc2c(c1)OCCO2 [(j), 3-(Z)-{1-(4-[N-methyl-N-(4-methylpiperazin-1-yl-methylcarbonyl)-amino]-phenyl-amino)-1-(3,4-ethylenedioxyphenyl)-methylene}-6-methoxycarbonyl-2-indolinone]	0.2
CC(=O)N(CCN(C)C)c1ccc(N/C(=C2\C(=O)Nc3cc(F)ccc32)c2ccc3c(c2)OCCO3)cc1 [(k), 3-(Z)-{1-(4-[N-acetyl-N-(2-dimethylaminoethyl)-amino]-phenylamino)-1-(3,4-ethylenedioxyphenyl)-methylene}-6-fluoro-2-indolinone]	0.7
CC(=O)N(CCCN(C)C)c1ccc(N/C(=C2\C(=O)Nc3cc(Cl)ccc32)c2ccc3c(c2)OCCO3)cc1 [(m), 3-(Z)-{1-(4-[N-acetyl-N-(3-dimethylaminopropyl)-amino]-phenylamino)-1-(3,4-ethylenedioxyphenyl)-methylene}-6-chloro-2-indolinone]	0.3
CCC(=O)N(CCCN(C)C)c1ccc(N/C(=C2\C(=O)Nc3cc(Cl)ccc32)c2ccc3c(c2)OCCO3)cc1 [(n), 3-(Z)-{1-(4-[N-propionyl-N-(3-dimethylaminopropyl)-amino]-phenylamino)-1-(3,4-ethylenedioxyphenyl)-methylene}-6-chloro-2-indolinone]	1
CCC(=O)N(CCN(C)C)c1ccc(N/C(=C2\C(=O)Nc3cc(Cl)ccc32)c2ccc3c(c2)OCCO3)cc1 [(o), 3-(Z)-{1-(4-[N-propionyl-N-(2-dimethylaminoethyl)-amino]-phenylamino)-1-(3,4-ethylenedioxyphenyl)-methylene}-6-chloro-2-indolinone]	1
CC(=O)N(CCN(C)C)c1ccc(N/C(=C2\C(=O)Nc3cc(Cl)ccc32)c2ccc3c(c2)OCCO3)cc1 [(p), 3-(Z)-{1-(4-[N-acetyl-N-(2-dimethylaminoethyl)-amino]-phenylamino)-1-(3,4-ethylenedioxyphenyl)-methylene}-6-chloro-2-indolinone]	2
CN1CCN(Cc2ccc(N/C(=C3\C(=O)Nc4cc(Cl)ccc43)c3ccc4c(c3)OCO4)cc2)CC1 [(q), 3-(Z)-{1-(4-[4-methylpiperazin-1-yl-methyl]-phenylamino)-1-(3,4-methylenedioxy-phenyl)-methylene}-6-chloro-2-indolinone]	2
COC(=O)c1ccc2c(c1)NC(=O)/C2=C(\Nc1ccc(N(CCN(C)C)S(C)(=O)=O)cc1)c1ccc2c(c1)OCCO2 [(r), 3-(Z)-{1-(4-[N-methanesulphonyl-N-(2-dimethylaminoethyl)-amino]-phenylamino)-1-(3,4-ethylenedioxyphenyl)-methylene}-6-methoxycarbonyl-2-indolinone]	0.2
COC(=O)c1ccc2c(c1)NC(=O)/C2=C(\Nc1ccc(CN2CCCC2)cc1)c1ccc2c(c1)OCCO2 [(s), 3-(Z)-{1-(4-[pyrrolidin-1-yl-methyl]-phenylamino)-1-(3,4-ethylenedioxyphenyl)-methylene}-6-methoxycarbonyl-2-indolinone]	0.6
COC(=O)c1ccc2c(c1)NC(=O)/C2=C(\Nc1ccc(N(C)C(=O)CN(C)C)cc1)c1ccc2c(c1)OCCO2 [(t), 3-(Z)-{1-(4-[N-methyl-N-(dimethylaminomethylcarbonyl)-amino]-phenylamino)-1-(3,4-ethylenedioxyphenyl)-methylene}-6-methoxycarbonyl-2-indolinone]	0.6
COC(=O)c1ccc2c(c1)NC(=O)/C2=C(\Nc1ccc(CN(C)C)cc1)c1ccc2c(c1)OCO2 [(w), 3-(Z)-{1-(4-[dimethylamino-methyl]-phenylamino)-1-(3,4-methylenedioxyphenyl)-methylene}-6-methoxycarbonyl-2-indolinone]	0.5
CCN(CC)Cc1ccc(N/C(=C2\C(=O)Nc3cc(C(=O)OC)ccc32)c2ccc3c(c2)OCO3)cc1 [(x), 3-(Z)-{1-(4-[diethylamino-methyl]-phenylamino)-1-(3,4-methylenedioxyphenyl)-methylene}-6-methoxycarbonyl-2-indolinone]	1
CN(C)C(=O)c1ccc(N/C(=C2\C(=O)Nc3cc(F)ccc32)c2ccc3c(c2)ncn3C)cc1 [(y), 3-(Z)-{1-[4-(dimethylaminocarbonyl)-phenylamino]-1-(1-methyl-benzimidazol-5-yl)-methylene}-6-fluoro-2-indolinone]	14
CCC(=O)N(CCCN(C)C)c1ccc(N/C(=C2\C(=O)Nc3cc(F)ccc32)c2ccc3c(c2)OCCO3)cc1 [(z), 3-(Z)-{1-(4-[N-propionyl-N-(3-dimethylaminopropyl)-amino]-phenylamino)-1-(3,4-ethylenedioxyphenyl)-methylene}-6-fluoro-2-indolinone]	0.5

Tested on: not given
Assay: not given
Conditions: not given

SMILES	melting point [°C]
CCNCc1ccc(N/C(=C2\C(=O)Nc3cc(Cl)ccc32)c2ccc3c(c2)OCO3)cc1 (as salt: salt) [Example 8.0, 6-chloro-3-(Z)-{1-[4-(ethylaminomethyl)-phenylamino]-1-(3,4-methylenedioxyphenyl)-methylene}-2-indolinone]	248 to 250
CCNCc1ccc(N/C(=C2\C(=O)Nc3cc(F)ccc32)c2ccc3c(c2)ncn3C)cc1 (as salt: salt) [Example 11, 6-fluoro-3-(Z)-{1-[4-(ethylaminomethyl)-phenylamino]-1-(1-methylbenzimidazol-5-yl)-methylene}-2-indolinone]	226 to 228
CCC(=O)N(CCCN(C)C)c1ccc(N/C(=C2\C(=O)Nc3ccccc32)c2coc(N(Cc3ccccc3)Cc3ccccc3)n2)cc1 [Example 1.0, 3-(Z)-[1-{4-[N-propionyl-N-(3-dimethylamino-propyl)-amino]-phenylamino}-1-(2-dibenzylamino-4-oxazolyl)-methylene]-2-indolinone]	204 to 205
CN(C)CC(=O)N(C)c1ccc(N/C(=C2\C(=O)Nc3ccccc32)c2cnccn2)cc1 [Example 2.0, 3-(Z)-{1-[4-(N-dimethylaminomethylcarbonyl-N-methyl-amino)-phenylamino]-1-(2-pyrazinyl)-methylene}-2-indolinone]	198 to 199
CN(C)CC(=O)N(C)c1ccc(N/C(=C2\C(=O)Nc3cc(Cl)ccc32)c2ccncc2)cc1 [Example 3.0, 6-Chloro-3-(Z)-[1-(4-{N-(dimethylaminomethylcarbonyl)-N-methyl-amino}-phenyl-amino)-1-(4-pyridyl)-methylene]-2-indolinone]	274 to 276
CN1CCC(N/C(=C2\C(=O)Nc3ccccc32)c2ccoc2)CC1 [Example 6.0, 3-(Z)-[1-(1-methylpiperidin-4-ylamino)-1-(3-furyl)-methylene]-2-indolinone]	255 to 260
CNC(=O)c1ccc2c(c1)NC(=O)/C2=C(\Nc1ccc(CN2CCN(C)CC2)cc1)c1ccc2c(c1)OCCO2 [Example 10.0, 6-methylaminocarbonyl-3-(Z)-{1-[4-(1-methylpiperazin-4-yl-methyl)-phenylamino]-1-(3,4-ethylenedioxyphenyl)-methylene}-2-indolinone]	172
